In brackets after ≈: the same amount, converted by molar mass.
Key:
D(2) dopamine receptor = D(2) dopamine receptor (Homo sapiens, UniProt P14416); experiment: Displacement of [3H]N-methylspiperone from human D2L receptor extracted from HEK293 cell membrane assessed as inhibition constant incubated for 1 hrs by radioligand competitive binding based scintillation counter analysis; assay type: cell membranes
[1] = Metabolic stability in mouse liver microsomes assessed as intrinsic clearance measured per mg protein; assay type: ADME, Microsome; conditions: read-out: CLH
[2] = Protein binding in mouse plasma assessed as unbound fraction at 0.5 uM; assay type: ADME, cell-free
[3] = Apparent passive permeability across basolateral to apical side in MDCKII-MDR1 cells; assay type: ADME, cell-based, Canis lupus familiaris; conditions: dog, MDCK-MDR1
[4] = Metabolic stability in mouse liver microsomes assessed as intrinsic clearance measured per gram liver; assay type: ADME, Microsome
U-251 [5] = experiment: Growth inhibition of human U-251MG cells incubated for 48 hrs by SRB assay; assay type: functional
U-251 [6] = experiment: Antitumor activity against human U-251MG cells assessed as total growth inhibition incubated for 48 hrs by SRB assay; assay type: functional
[7] = Protein binding in human plasma assessed as unbound fraction at 0.5 uM; assay type: ADME, cell-free
T98G [8] = experiment: Antitumor activity against human T98G cells assessed as lethal concentration incubated for 48 hrs by SRB assay; assay type: functional
[9] = Metabolic stability in mouse liver microsomes assessed as half-life; assay type: ADME, Microsome
[10] = Metabolic stability in human liver microsomes assessed as intrinsic clearance measured per mg protein; assay type: ADME, Microsome; conditions: read-out: CLH
U-251 [11] = experiment: Antitumor activity against human U-251MG cells assessed as lethal concentration incubated for 48 hrs by SRB assay; assay type: functional; conditions: read-out: LC50 (the source's name)
[12] = Metabolic stability in human liver microsomes assessed as intrinsic clearance measured per gram liver; assay type: ADME, Microsome
U-87 MG [13] = experiment: Growth inhibition of human U-87 MG cells incubated for 48 hrs by SRB assay; assay type: functional, U-87MG ATCC
T98G [14] = experiment: Growth inhibition of human T98G cells incubated for 48 hrs by SRB assay; assay type: functional
T98G [15] = experiment: Antitumor activity against human T98G cells assessed as total growth inhibition incubated for 48 hrs by SRB assay; assay type: functional
U-87 MG [16] = experiment: Antitumor activity against human U-87 MG cells assessed as lethal concentration incubated for 48 hrs by SRB assay; assay type: functional, U-87MG ATCC
U-87 MG [17] = experiment: Antitumor activity against human U-87 MG cells assessed as total growth inhibition incubated for 48 hrs by SRB assay; assay type: functional, U-87MG ATCC
[18] = Metabolic stability in human liver microsomes assessed as half-life; assay type: ADME, Microsome
[19] = Apparent passive permeability across apical to basolateral side in MDCKII-MDR1 cells; assay type: ADME, cell-based, Canis lupus familiaris; conditions: dog, MDCK-MDR1
[20] = Kinetic solubility of compound pH 7.4; assay type: physicochemical; conditions: buffer, read-out: Kinetic_solubility
[21] = biological target: T1, D(4) dopamine receptor (Homo sapiens) (UniProt P21917); experiment: Partial agonist activity at D4 receptor (unknown origin) assessed as bias factor by beta-arrestin recruitment assay versus Gi activation assay; assay type: functional; conditions: filed as partial agonist
T1 sequence (whole entry): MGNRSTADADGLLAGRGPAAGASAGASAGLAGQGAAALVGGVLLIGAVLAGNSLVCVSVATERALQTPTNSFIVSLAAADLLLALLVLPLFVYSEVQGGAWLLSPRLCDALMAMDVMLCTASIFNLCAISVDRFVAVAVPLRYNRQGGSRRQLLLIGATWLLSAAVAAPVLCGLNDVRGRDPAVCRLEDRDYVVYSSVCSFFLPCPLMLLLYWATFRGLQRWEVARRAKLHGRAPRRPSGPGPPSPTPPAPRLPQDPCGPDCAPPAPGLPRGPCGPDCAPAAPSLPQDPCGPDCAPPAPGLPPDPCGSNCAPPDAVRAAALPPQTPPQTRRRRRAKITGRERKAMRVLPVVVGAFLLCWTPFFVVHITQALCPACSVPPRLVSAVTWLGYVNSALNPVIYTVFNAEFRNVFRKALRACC

[22] = biological target: T1, D(4) dopamine receptor (Homo sapiens); experiment: Partial agonist activity at D4 receptor (unknown origin) assessed as bias factor by Gi activation assay versus beta-arrestin recruitment assay; assay type: functional; conditions: filed as partial agonist

Chain of D(2) dopamine receptor (P14416 whole entry): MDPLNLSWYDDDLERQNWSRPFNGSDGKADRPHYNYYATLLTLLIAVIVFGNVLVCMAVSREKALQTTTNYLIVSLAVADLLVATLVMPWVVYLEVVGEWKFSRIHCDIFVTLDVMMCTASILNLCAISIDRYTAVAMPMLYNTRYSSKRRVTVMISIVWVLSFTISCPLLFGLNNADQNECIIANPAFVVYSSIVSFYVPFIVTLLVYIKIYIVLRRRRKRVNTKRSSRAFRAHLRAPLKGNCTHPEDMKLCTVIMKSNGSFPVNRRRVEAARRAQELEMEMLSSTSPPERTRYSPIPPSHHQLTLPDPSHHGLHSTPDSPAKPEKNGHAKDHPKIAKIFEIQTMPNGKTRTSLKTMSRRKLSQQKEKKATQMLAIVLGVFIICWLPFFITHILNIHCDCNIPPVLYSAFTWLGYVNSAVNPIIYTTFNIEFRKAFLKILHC

For `O=C1CCc2ccccc2N1CCCN1CCN(c2ccc(I)cc2)CC1`, the Ki (D(2) dopamine receptor) was 3.24 µM.
For `O=C1CCc2ccccc2N1CCCN1CCN(c2ccc(C(F)(F)F)cc2)CC1`, the Ki (D(2) dopamine receptor) was 29.5 µM.
For `O=C1CCc2ccccc2N1CCCN1CCN(c2cccc3ccccc23)CC1`, the microsomal CLint [1] was 288 µL/min/mg, the fraction unbound at 0.5 µM [2] was 0.48 and the Papp B→A [3] was 3.47 ×10⁻⁶ cm/s. For the same molecule, the scaled CLint [4] was 13 mL/min/g, the Ki (D(2) dopamine receptor) was 0.0288 µM and the GI50 (U-251 [5]) was 22.6 µM. For the same molecule, the TGI (U-251 [6]) was 36.6 µM, the fraction unbound at 0.5 µM [7] was 0.23 and the LC50 (lethal concentration 50%) (T98G [8]) was 71 µM. The half-life [9] was 4.81 min, the microsomal CLint [10] was 145 µL/min/mg and the CC50 (U-251 [11]) was 78.7 µM. It also gave a scaled CLint [12] of 5.78 mL/min/g, a GI50 (U-87 MG [13]) of 19.5 µM and a GI50 (T98G [14]) of 12.2 µM. For the same molecule, the TGI (T98G [15]) was 32.1 µM, the LC50 (U-87 MG [16]) was 80 µM and the TGI (U-87 MG [17]) was 39.5 µM. It also gave a half-life [18] of 9.58 min, a Papp A→B [19] of 1.84 ×10⁻⁶ cm/s and a solubility kinetic [20] of 112 µM (≈ 44.7 µg/mL).
Molecule `Cc1ccc2nc(CNCCCOc3ccccc3)cc(O)c2c1` has an Activity [21] of 7.4.
`O=C1CCc2ccccc2N1CCCN1CCN(c2ccc3ccccc3c2)CC1` showed a microsomal CLint [1] of 202 µL/min/mg, a fraction unbound at 0.5 µM [2] of 0.71 and a Papp B→A [3] of 2.06 ×10⁻⁶ cm/s. The scaled CLint [4] was 9.09 mL/min/g, the Ki (D(2) dopamine receptor) was 6.17 µM and the GI50 (U-251 [5]) was 26.5 µM. It also gave a TGI (U-251 [6]) of 63.2 µM, a fraction unbound at 0.5 µM [7] of 0.41 and an LC50 (lethal concentration 50%) (T98G [8]) of 96.7 µM. The half-life [9] was 6.86 min, the microsomal CLint [10] was 73.8 µL/min/mg and the CC50 (U-251 [11]) was 201 µM. The scaled CLint [12] was 2.95 mL/min/g, the GI50 (U-87 MG [13]) was 25.7 µM and the GI50 (T98G [14]) was 20 µM. The TGI (T98G [15]) was 42.1 µM, the LC50 (U-87 MG [16]) was 118 µM and the TGI (U-87 MG [17]) was 55.2 µM. For the same molecule, the half-life [18] was 18.8 min, the Papp A→B [19] was 1.77 ×10⁻⁶ cm/s and the solubility kinetic [20] was 163 µM (≈ 65.1 µg/mL).
`O=C1CCc2ccccc2N1CCCN1CCN(c2ccccc2-c2ccccc2)CC1` gave a Ki (D(2) dopamine receptor) of 0.0759 µM.
`O=C1CCc2ccccc2N1CCCN1CCN(c2ccc(Cl)cc2)CC1` gave a GI50 (U-251 [5]) of 61.6 µM, a TGI (U-251 [6]) of 104 µM and an LC50 (lethal concentration 50%) (T98G [8]) of 200 µM. The CC50 (U-251 [11]) was 182 µM, the GI50 (U-87 MG [13]) was 42.6 µM and the GI50 (T98G [14]) was 21.9 µM. The TGI (T98G [15]) was 66.1 µM, the LC50 (U-87 MG [16]) was 245 µM and the TGI (U-87 MG [17]) was 102 µM.
`O=C1CCc2ccccc2N1CCCN1CCN(C2CCCCC2)CC1` gave a Ki (D(2) dopamine receptor) of 25.1 µM.
With `Cn1nnc2c(C(N)=O)ncn2c1=O` [TEMOZOLOMIDE] the GI50 (U-251 [5]) was greater than 200 µM, the TGI (U-251 [6]) was greater than 200 µM and the CC50 (U-251 [11]) was greater than 200 µM. For the same molecule, the GI50 (U-87 MG [13]) was greater than 200 µM, the GI50 (T98G [14]) was greater than 200 µM and the TGI (T98G [15]) was greater than 200 µM. For the same molecule, the TGI (U-87 MG [17]) was greater than 200 µM.
In the case of `O=C1CCc2ccccc2N1CCCN1CCN(c2ccc(F)cc2)CC1`, the Ki (D(2) dopamine receptor) is reported as 4.07 µM.
With `CC(C)N1C[C@H](NC(=O)N2Cc3ccccc3[C@@H]2C)[C@@H](C)C1` the Activity [22] was 17.
For `COC(=O)c1ccc(N2CCN(CCCN3C(=O)CCc4ccccc43)CC2)cc1`, the Ki (D(2) dopamine receptor) was 46.8 µM.
`O=C1CCc2ccccc2N1CCCN1CCN(c2ccc(Br)cc2)CC1` showed a Ki (D(2) dopamine receptor) of 3.16 µM.
